Each structure is given as a SMILES string.

One compound from publication PMC4640066 (Nature Communications, 2015) can be followed below.

Experiment [1] relates to γ-tubulin-dependent, centrosome-induced aster formation. Nature of the experiment: Centrosome (sperm nuclei)-induced aster formation in Xenopus egg extracts. It is filed as biochemical. Conditions: Xenopus extracts with sperm nuclei, 30 min at 20 °C. On the procedure: Cytostatic factor (CSF)-arrested M phase Xenopus egg extracts (CSF extracts) were prepared. Briefly, unfertilized eggs were crushed by 10,700g centrifugation for 20 min. M phase extracts were mixed with 0.5 μM Cy3-labelled α/β-tubulin and various concentrations of compounds. After incubation for 30 min on ice, 15 μM RanQ69L, 200 sperm nuclei per μl or 5% DMSO were added and incubated for 30 min on ice. […]
(a) The efficiency of γ-tubulin depletion in Xenopus extracts was confirmed by immunoblotting. […] The depletion efficiency was calculated with ImageJ and was approx. 80%. […]
Scale bars, 5 μm. […] Aster formation was analyzed by fluorescence microscopy. […] Asters (Fig. 1e and Supplementary Figure 4c) in 10 randomly selected fields were counted per slide with a 10× objective; each sample had four slides. […]
Error bars represent S.D. Two-tailed, paired Student’s t-test was used to obtain P values. […] (e) Quantification of the radius of RanQ69L-induced asters from Fig. 1e and Supplementary Figure 4c. To gauge the impact upon the radius of the asters, n = 20 asters were quantified per sample per experiment. […]

For experiment [2], the system named is HeLa cells expressing EB3-EGFP (mitotic spindle). The experiment in a line: EB3-EGFP signal tracking, mitotic (MG132 metaphase) cells. It is filed as cell-based, human. Conditions: 30 μM. On the procedure:
Figure 4 Impact of gatastatin on mitotic spindle dynamics. (a,b) γ-Tubulin function is important for normal bipolar spindle formation. (a) Scheme of the experiment in b. HeLa cells were arrested at prometaphase by treatment with 10 μM of STLC for 15 h before STLC was washed out. Progression through mitotic phases was then monitored either in the presence or absence of 30 μM of gatastatin for 2 h. (b) The mitotic stages of 20 cells per experiment from the scheme in a were analysed in three independent experiments. Error bars represent s.d. (c–e) γ-Tubulin function is important for normal bipolar spindle maintenance. (c) Scheme of the experiment in d,e. After STLC washout, HeLa cells were arrested at metaphase with bipolar spindles by treatment with 5 μM of MG132 for 2 h. 30 μM Gatastatin was added to cells and incubated for 2 h in the presence of MG132. (d) The spindle length (distance between centrosomes) of cells in scheme c was measured as described in Fig. 3g. Spindles of 20 cells per experiment were analysed. Three independent experiments were performed and one representative experiment is shown. Error bars represent s.d. Two-tailed, unpaired Student's t-test was used to obtain P value. (e) The effect of gatastatin on spindle MT dynamics was analysed using HeLa cells expressing EB3-EGFP. EB3 signals of spindle in c were monitored. […] Scale bar, 5 μm.
A HeLa ‘Kyoto' cell line stably expressing EB3-EGFP (a kind gift from Dr J. Ellenberg) was maintained in DMEM+GlutaMAX (Gibco) supplemented with 10% FBS, 2 mM L-glutamine, 100 U ml^−1 penicillin, 100 μg ml^−1 streptomycin, 1 mM sodium pyruvate and 0.5 mg ml^−1 G418. Cells were seeded into eight-well Lab-Tek chambers (Nunc, Rochester, NY) for 24-h prior imaging. For imaging, the medium was exchanged to Live Cell Imaging Solution (Molecular Probes Life Technologies) supplemented as described above and containing various concentrations of AG1 or gatastatin. Interphase cells were incubated with drugs for 15 min and mitotic cells were treated as described in Fig. 4c. Then, EB3 tracks were observed under a PerkinElmer UltraVIEW ERS Spinning Disk microscope (Software: UltraVIEW ERS Imaging Suite) equipped with a Plan-APOCHROMAT × 100/1.4 Oil DIC objective, a Confocal Scanner Unit (Yokogawa CSU 22), a Hamamatsu EM CCD camera (C9100-50) and a 488-nm Argon laser at 37 °C, and time-lapse sequences were performed for 60 s with a 400-ms interval. Automatic analysis of EB3-EGFP signal tracks was performed with ImageJ (http://imagej.nih.gov/ij/) and Matlab (Mathworks) as described.

Setting [3] is: 2 h with MG132, mitotic HeLa EB3-EGFP, mean±s.d.

Turning to `COc1cc2c(=O)c(-c3cc(OC)c4c(c3OC)OCO4)coc2cc1OCc1ccccc1` [Gatastatin, O^7-demethylbenzyl AG1], the “Effect on centrosome-induced aster formation” value in experiment [1] is listed as “nearly completely inhibited”. In experiment [2] (setting [3]), this compound displayed a Track length of 0.53±0.09 μm, a Track lifetime of 1.76 ± 0.66 s and a Velocity of 11.21±1.68 μm min^−1. For the same compound, the Track numbers in experiment [2] (2 h with MG132, mitotic, from a 25-μm^2 area in the spindle) is 37.27±8.12. The “Reduction of the number of growing MTs” value in experiment [2] (preformed metaphase spindle (MG132), compared with control) is recorded as 17%.
